Where “and” joins values, the source holds several entries; their conditions need not be identical. Equal entries are not always repeated. Numbers after ± are expanded uncertainties.
Conditions: Buoyancy - hydrostatic balance with magnetic suspension - one sinker

FCF [difluoromethane]
Conditions	mass density
263.88 K, 571.82 kPa, Gas	15.4369 ± 0.019 kg/m3
263.89 K, 71.43 kPa, Gas	1.7159 ± 0.015 kg/m3
264.46 K, 1262.6 kPa, Liquid	1086.13 ± 0.25 kg/m3
264.46 K, 1771.5 kPa, Liquid	1087.75 ± 0.25 kg/m3
264.47 K, 883.24 kPa, Liquid	1084.88 ± 0.25 kg/m3
264.47 K, 1555.9 kPa, Liquid	1087.04 ± 0.25 kg/m3
264.47 K, 1797.3 kPa, Liquid	1087.79 ± 0.41 kg/m3
264.47 K, 1799.4 kPa, Liquid	1087.82 ± 0.41 kg/m3
264.48 K, 882.25 kPa, Liquid	1084.85 ± 0.25 kg/m3
264.48 K, 1561.7 kPa, Liquid	1087.04 ± 0.25 kg/m3
264.49 K, 616.31 kPa, Liquid	1083.92 ± 0.25 kg/m3
273.73 K, 101.73 kPa, Gas	2.3681 ± 0.015 kg/m3
273.73 K, 312.85 kPa, Gas	7.5636 ± 0.016 kg/m3
273.73 K, 513.88 kPa, Gas	12.9426 ± 0.017 kg/m3
273.73 K, 711.85 kPa, Gas	18.7582 ± 0.019 kg/m3
273.73 K, 817.04 kPa, Gas	22.1108 ± 0.021 kg/m3
273.74 K, 224.38 kPa, Gas	5.3352 ± 0.015 kg/m3
273.74 K, 416.77 kPa, Gas	10.2856 ± 0.017 kg/m3
273.74 K, 614.63 kPa, Gas	15.8288 ± 0.018 kg/m3
273.74 K, 771.81 kPa, Gas	20.6433 ± 0.02 kg/m3
273.74 K, 824.1 kPa, Gas	22.3391 ± 0.021 kg/m3
273.74 K, 876.3 kPa, Liquid	1053.21 ± 0.24 kg/m3
273.74 K, 1101.1 kPa, Liquid	1054.06 ± 0.24 kg/m3
273.75 K, 1351.5 kPa, Liquid	1054.99 ± 0.24 kg/m3
273.76 K, 1582.2 kPa, Liquid	1055.81 ± 0.24 kg/m3
283.52 K, 412.99 kPa, Gas	9.7269 ± 0.016 kg/m3
283.52 K, 614.51 kPa, Gas	15.0118 ± 0.017 kg/m3
283.52 K, 710.61 kPa, Gas	17.6856 ± 0.018 kg/m3
283.53 K, 101.75 kPa, Gas	2.2806 ± 0.014 kg/m3
283.53 K, 213.32 kPa, Gas	4.8632 ± 0.015 kg/m3
283.53 K, 312.42 kPa, Gas	7.2368 ± 0.015 kg/m3
283.53 K, 812.63 kPa, Gas	20.6499 ± 0.019 kg/m3
283.54 K, 502.33 kPa, Gas	12.0197 ± 0.016 kg/m3
283.54 K, 1013.2 kPa, Gas	26.9253 ± 0.021 kg/m3 and 26.9235 ± 0.021 kg/m3
283.55 K, 911.64 kPa, Gas	23.6652 ± 0.02 kg/m3
283.55 K, 1562.5 kPa, Liquid	1020.09 ± 0.24 kg/m3
283.56 K, 1156 kPa, Liquid	1018.14 ± 0.23 kg/m3
283.56 K, 1382.8 kPa, Liquid	1019.19 ± 0.23 kg/m3
293.32 K, 107.46 kPa, Gas	2.3235 ± 0.014 kg/m3
293.32 K, 432.29 kPa, Gas	9.7863 ± 0.015 kg/m3
293.32 K, 546.17 kPa, Gas	12.5808 ± 0.016 kg/m3
293.32 K, 656.65 kPa, Gas	15.3945 ± 0.016 kg/m3
293.33 K, 1265.1 kPa, Gas	33.2531 ± 0.022 kg/m3
293.33 K, 1397.3 kPa, Gas	37.8678 ± 0.023 kg/m3
293.33 K, 2143.9 kPa, Liquid	984.45 ± 0.23 kg/m3
293.34 K, 760.28 kPa, Gas	18.1362 ± 0.017 kg/m3
293.34 K, 866.25 kPa, Gas	21.0499 ± 0.018 kg/m3
293.34 K, 968.81 kPa, Gas	23.9856 ± 0.019 kg/m3
293.34 K, 1066.3 kPa, Gas	26.9025 ± 0.02 kg/m3
293.34 K, 1161.5 kPa, Gas	29.864 ± 0.021 kg/m3
293.34 K, 1757.2 kPa, Liquid	982.24 ± 0.23 kg/m3
293.35 K, 1537.9 kPa, Liquid	980.97 ± 0.23 kg/m3
293.37 K, 323.39 kPa, Gas	7.2059 ± 0.015 kg/m3
293.38 K, 219.26 kPa, Gas	4.8156 ± 0.014 kg/m3

— the NIST ThermoML archive (doi:10.1016/j.jct.2014.06.023)
